# Assay results from patent US10463590B1, “Antiplaque and dental health oral formulation” (priority 2018, dated 2019).
# Columns and labels:
# Format in all cases: cell-based
# [1] = test system: Streptococcus mutans and Streptococcus sorbinus; test: Bacteriostatic effect, broth macro-dilution assay (OD600) after 24 h; details: 10 μg/ml amoxicillin (FIG. 7A)
# Procedure: (§1) Two oral Streptococcus species, i.e., Streptococcus mutans AU159 strain and Streptococcus sorbinus SL1 strain, obtained from the American Type Culture Collection (Manassas, Va.), were tested in their two morphological forms: cocci planktonic form and biofilm. The stocks of both species were cultured in commonly used conditions, i.e., BHI broth (Remel, San Diego, Calif.) without antibiotics at 37° C. with 5% CO2, in sterile two-position cap 5 ml polypropylene test tubes.
# Growth inhibition of Streptococcus mutans and Streptococcus sorbinus was tested using standard macro-dilution method according to guidance of American Society for Microbiology to establish MIC (Minimal Inhibitory Concentration) value. Briefly, sterile 3 ml test two-position capped tubes containing 1 ml BHI broth, supplemented with the test mix was inoculated with 1×10^7 CFU/ml of the homogenous bacterial suspension. The tubes were then incubated at 37° C. with 5% CO2 and growth inhibition as a decrease in the optical density (OD600) was measured after 24 h. The entire experiment was repeated three times for each strain. Control cultures were treated with DMSO (i.e., 0.1-0.4% v/v) alone or amoxicillin (i.e. 10 μg/ml).
# [2] = test system: biofilm of Streptococcus mutans and Streptococcus sorbinus; test: Preventive effect on biofilm formation, crystal violet staining assay after 24 h; details: 10 μg/ml amoxicillin (FIG. 7C)
# Procedure: as §1
# Preventive effect of the test mix against biofilm of Streptococcus mutans and Streptococcus sorbinus was evaluated by the commonly used crystal violet (CV) staining method, according to guidance of American Society for Microbiology to establish MBFC (Minimal Biofilm Formation Concentration) value. Briefly, 1×10^7 CFU/ml from homogeneous bacterial culture in BHI broth containing 1% sucrose, as a standard approach, was inoculated into saliva-coated 96-well plates and supplemented with the test mix. Control wells were treated with DMSO (i.e., 0.1-0.4% v/v) alone or amoxicillin (i.e., 10 μg/ml). All plates were then incubated at 37° C. with 5% CO2 for 24 h. […] The biofilms were carefully washed three times with 1×PBS (phosphate-buffered saline), and 200 μl of methanol was added to each well to extract a dye which was measured at 595 nm using a spectrophotometer (Molecular Device, Spectra Max 340). […]
# [3] = test system: pre-existing biofilm of Streptococcus mutans and Streptococcus sorbinus; test: Pre-formed biofilm killing (biocidal) effect, alamar Blue assay after 24 h; details: 500 μg/ml amoxicillin (FIG. 7E)
# Procedure: as §1
# Qualitative and quantitative efficacy of the test mix against biofilm of Streptococcus mutans and Streptococcus sorbinus was evaluated by the commonly used crystal violet (CV) staining method supported by alamarBlue staining assay (where resazurin, a non-fluorescent indicator dye, is converted to bright red-fluorescent resorufin via the reduction reactions of metabolically active cells and the amount of fluorescence produced is proportional to the number of living cells) for evaluating cellular health, according to guidance of American Society for Microbiology and manufacturer's protocol to establish MBEC (Minimal Biofilm Eradication Concentration) and MBBC (Minimal Biofilm Biocidal Concentration) values. Briefly, 1×10^7 CFU/ml from homogeneous bacterial culture in BHI broth containing 1% sucrose, as a standard approach, was inoculated into saliva-coated 96-well plates and supplemented with the test mix. […]
# [4] = test system: Streptococcus mutans and Streptococcus sorbinus; test: Bactericidal effect, broth macro-dilution combined with plating assay after 24 h; details: 10 μg/ml amoxicillin (FIG. 7B)
# Procedure: as §1
# The plates were then incubated at 37° C. with 5% CO2 and bacterial re-growth was assessed after 24 h. The entire experiment was repeated three times for each strain. Control cultures were treated with DMSO (i.e., 0.1-0.4% v/v) alone or amoxicillin (i.e. 10 μg/ml).
compound,measurement,setting,value
CC1(C)S[C@@H]2[C@H](NC(=O)[C@H](N)c3ccc(O)cc3)C(=O)N2[C@H]1C(=O)O [amoxicillin],bacteriostatic effect,[1],100%
same,preventive effect on biofilm formation,[2],approximately 99%
same,biocidal effect on pre-existing biofilm,[3],approximately 20%
same,bactericidal effect,[4],100%
